Laboratory results taken from US4880798A, “Cephalosporin derivatives” (Mochida Pharmaceutical Co., Ltd., priority 1986, dated 1989).
≈ marks a conversion by molar mass, not a printed value. Where two headings read alike, the source gives them in different places.

Experiments:
LD50, Probit method = conditions: in vivo, iv
Description: Next, LD50 of representative examples of the compounds of the present invention is shown in Table 3 wherein LD50 was determined in accordance with the Probit method.

[1] = test system: Staphylococcus aureus 209P; assay: Antibacterial activity in vitro (MIC), agar plate dilution method; assay type: cell-based; conditions: Mueller Hinton agar, 10^6 cells/ml, 37° C., 20 hours
Description: (§1) Antibacterial activity in vitro was determined in accordance with the agar plate dilution method.
(§2) A platinum loop each of test bacteria (10^6 cells/ml), cultured in Mueller Hinton broth, was inoculated on Mueller Hinton agar plates which contained test compounds at various concentrations. After cultivating at 37° C. for 20 hours, the minimum inhibitory concentration (MIC μg/ml) was determined.

[2] = test system: Pseudomonas aeruginosa 34; assay: as above; assay type: cell-based
Description: as §1, §2

[3] = test system: Escherichia coli NIHJ JC 2; assay: as above; assay type: cell-based; conditions: NIHJJC2, Mueller Hinton agar, 10^6 cells/ml, 37° C., 20 hours
Description: as §1, §2

[4] = test system: Serratia marcescens IFO 3759; assay: as above; assay type: cell-based
Description: as §1, §2

[5] = test system: Klebsiella pneumoniae IFO 3317; assay: as above; assay type: cell-based
Description: as §1, §2

Escherichia coli 67 = assay: Protection against systemic bacterial infection in ICR mice (ED50); assay type: in vivo; conditions: iv, 168 h, Escherichia coli 67, i.p. infection, compound i.v. one hour after infection, survival 1 week
Description: (§3) Protection ability against systemic bacterial infection was determined as follows. An aqueous suspension of test bacteria was intraperitoneally injected into 10 four week old ICR mice. One hour after the infection, test compounds were intravenously administered. The number of surviving mice was counted 1 week after injection to determine the dose at which 50% of the test animals were alive (ED50 : mg/kg).

Staphylococcus aureus 58 = assay: as above; assay type: in vivo; conditions: iv, 168 h, Staphylococcus aureus 58 (methicillin-resistant strain), i.p. infection, compound i.v. one hour after infection, survival 1 week
Description: as §3

[6] = test system: Pseudomonas aeruginosa IFO 3445; assay: as above; assay type: in vivo; conditions: IFO3445, iv, 168 h
Description: as §3

Serratia marcescens 274 = assay: as above; assay type: in vivo; conditions: 168 h
Description: as §3

Enterobacter 8 = assay: as above; assay type: in vivo; conditions: 168 h
Description: as §3

[7] = test system: Klebsiella pneumoniae IFO 3317; assay: as above; assay type: in vivo; conditions: IFO3317, iv, 168 h
Description: as §3

[8] = test system: Pseudomonas aeruginosa 34; assay: as above; assay type: in vivo; conditions: 168 h
Description: as §3

Staphylococcus aureus 4 = assay: as above; assay type: in vivo; conditions: iv, 168 h, Staphylococcus aureus 4 (methicillin-resistant strain), i.p. infection, compound i.v. one hour after infection, survival 1 week
Description: as §3

[9] = Pseudomonas aeruginosa 34, Mueller Hinton agar, 10^6 cells/ml, 37° C., 20 hours, read-out: MIC
[10] = IFO3759, Serratia marcescens IFO 3759, Mueller Hinton agar, 10^6 cells/ml, 37° C., 20 hours, read-out: MIC
[11] = IFO3317, Klebsiella pneumoniae IFO 3317, Mueller Hinton agar, 10^6 cells/ml, 37° C., 20 hours, read-out: MIC
[12] = Pseudomonas aeruginosa IFO 3445, i.p. infection, ICR mice, compound i.v. one hour after infection, survival 1 week, read-out: ED50
[13] = iv, Serratia marcescens 274, i.p. infection, ICR mice, compound i.v. one hour after infection, survival 1 week, read-out: ED50
[14] = iv, Enterobacter 8, i.p. infection, ICR mice, compound i.v. one hour after infection, survival 1 week, read-out: ED50
[15] = Klebsiella pneumoniae IFO 3317, i.p. infection, ICR mice, compound i.v. one hour after infection, survival 1 week, read-out: ED50
[16] = iv, Pseudomonas aeruginosa 34, i.p. infection, ICR mice, compound i.v. one hour after infection, survival 1 week, read-out: ED50

Cc1cc(SCC2=C(C(=O)O)N3C(=O)[C@@H](NC(=O)/C(=N\OCc4c(C(=O)O)ccc(O)c4O)c4csc(N)n4)[C@H]3SC2)n2nc(C(=O)O)nc2n1 [Compound 1, (6R,7R)-7-[2-(2-amino-4-thiazolyl)-2-[Z-[(6-carboxy-2,3-dihydroxyphenyl)methyl]oxyimino]acetamido]-3-[(2-carboxy-5-methyl-s-triazolo[1,5-a]pyrimidin-7-yl)thiomethyl]-8-oxo-5-thia-1-azabicyclo[4.2.0]oct-2-ene-2-carboxylic acid]
LD50 (LD50, Probit method): > 4000 mg/kg
MIC [1]: 6.25 µg/mL (≈ 8.25 µM)
MIC [2, 9]: 0.2 µg/mL (≈ 0.264 µM)
MIC [3]: 0.78 µg/mL (≈ 1.03 µM)
MIC [4, 10]: 0.39 µg/mL (≈ 0.515 µM)
MIC [5, 11]: < 0.05 µg/mL
ED50 (Escherichia coli 67): 1.59 mg/kg
ED50 (Staphylococcus aureus 58): 15.9 mg/kg
ED50 [6, 12]: 52 mg/kg
ED50 (Serratia marcescens 274; [13]): 0.5 mg/kg
ED50 (Enterobacter 8; [14]): 1.28 mg/kg
ED50 [7, 15]: 0.55 mg/kg

Cc1cc(SCC2=C(C(=O)O)N3C(=O)[C@@H](NC(=O)/C(=N\OCc4ccc(O)c(O)c4C(=O)O)c4csc(N)n4)[C@H]3SC2)n2nc(C(=O)O)nc2n1 [Compound 4, (6R,7R)-7-[2-(2-amino-4-thiazolyl)-2-[Z-[(2-carboxy-3,4-dihydroxyphenyl)methyl]oxyimino]acetamido]-3-[(2-carboxy-5-methyl-s-triazolo[1,5-a]pyrimidin-7-yl)thiomethyl]-8-oxo-5-thia-1-azabicyclo[4.2.0]oct-2-ene-2-carboxylic acid]
LD50 (LD50, Probit method): > 4000 mg/kg
MIC [1]: 3.13 µg/mL (≈ 4.13 µM)
MIC [3]: 0.39 µg/mL (≈ 0.515 µM)
MIC [4, 10]: 0.39 µg/mL (≈ 0.515 µM)
MIC [5, 11]: 0.05 µg/mL (≈ 0.066 µM)
ED50 [8, 16]: 50.6 mg/kg
ED50 (Serratia marcescens 274; [13]): 0.97 mg/kg
ED50 (Staphylococcus aureus 4): 3.35 mg/kg

Cc1cc(SCC2=C(C(=O)O)N3C(=O)[C@@H](NC(=O)/C(=N\OCc4cc(C(=O)O)cc(O)c4O)c4csc(N)n4)[C@H]3SC2)n2nc(C(=O)O)nc2n1 [Compound 2, (6R,7R)-7-[2-(2-amino-4-thiazolyl)-2-[Z-[(5-carboxy-2,3-dihydroxyphenyl)methyl]oxyimino]acetamido]-3-[(2-carboxy-5-methyl-s-triazolo[1,5-a]pyrimidin-7-yl)thiomethyl]-8-oxo-5-thia-1-azabicyclo[4.2.0]oct-2-ene-2-carboxylic acid]
LD50 (LD50, Probit method): > 4000 mg/kg
MIC [1]: 6.25 µg/mL (≈ 8.25 µM)
MIC [2, 9]: 0.2 µg/mL (≈ 0.264 µM)
MIC [3]: 0.39 µg/mL (≈ 0.515 µM)
MIC [4, 10]: 0.1 µg/mL (≈ 0.132 µM)
MIC [5, 11]: 0.05 µg/mL (≈ 0.066 µM)
ED50 (Escherichia coli 67): 1.1 mg/kg
ED50 (Staphylococcus aureus 58): 9.65 mg/kg
ED50 [6, 12]: 33.7 mg/kg
ED50 (Serratia marcescens 274; [13]): 0.55 mg/kg
ED50 (Enterobacter 8; [14]): 1.31 mg/kg
ED50 [7, 15]: 0.34 mg/kg

CC(C)(O/N=C(\C(=O)N[C@@H]1C(=O)N2C(C(=O)[O-])=C(C[n+]3ccccc3)CS[C@H]12)c1csc(N)n1)C(=O)O [CAZ, Ceftazidime, reference compound]
MIC ([2]; Pseudomonas aeruginosa, 34, 20 h): 3.13 µg/mL (≈ 5.73 µM)
MIC [3]: 0.2 µg/mL (≈ 0.366 µM)
MIC ([4]; Serratia marcescens, IFO3759, 20 h): < 0.05 µg/mL
MIC ([5]; Klebsiella pneumoniae, IFO3317, 20 h): < 0.05 µg/mL
ED50 (Escherichia coli 67): 2.8 mg/kg
ED50 ([8]; Pseudomonas aeruginosa, 34, iv): 123 mg/kg
ED50 ([6]; Pseudomonas aeruginosa): 230 mg/kg
ED50 (Serratia marcescens 274; Serratia marcescens, 274, iv): 3.62 mg/kg
ED50 (Enterobacter 8; Enterobacter, 8, iv): 4.36 mg/kg
ED50 ([7]; Klebsiella pneumoniae): 1.73 mg/kg

Cc1cc(SCC2=C(C(=O)O)N3C(=O)[C@@H](NC(=O)/C(=N\OCc4ccc(C(=O)O)c(O)c4O)c4csc(N)n4)[C@H]3SC2)n2nc(C(=O)O)nc2n1 [Compound 5, (6R,7R)-7-[2-(2-amino-4-thiazolyl)-2-[Z-[(4-carboxy-2,3-dihydroxyphenyl)methyl]oxyimino]acetamido]-3-[(2-carboxy-5-methyl-s-triazolo[1,5-a]pyrimidin-7-yl)thiomethyl]-8-oxo-5-thia-1-azabicyclo[4.2.0]oct-2-ene-2-carboxylic acid]
LD50 (LD50, Probit method): > 4000 mg/kg
MIC [1]: 3.13 µg/mL (≈ 4.13 µM)
MIC [3]: 0.78 µg/mL (≈ 1.03 µM)
MIC [4, 10]: 0.78 µg/mL (≈ 1.03 µM)
MIC [5, 11]: 0.05 µg/mL (≈ 0.066 µM)
ED50 [8, 16]: 81.2 mg/kg
ED50 (Serratia marcescens 274; [13]): 0.75 mg/kg
ED50 (Staphylococcus aureus 4): 4.21 mg/kg

Cn1nnnc1SCC1=C(C(=O)O)N2C(=O)[C@@H](NC(=O)[C@H](O)c3ccccc3)[C@H]2SC1 [CMD, Cefamandole, reference compound]
ED50 (Staphylococcus aureus 58): 18.9 mg/kg
ED50 (Staphylococcus aureus 4): 5.94 mg/kg

Cc1cc(SCC2=C(C(=O)O)N3C(=O)[C@@H](NC(=O)/C(=N\OCc4cc(O)c(O)c(C(=O)O)c4)c4csc(N)n4)[C@H]3SC2)n2nc(C(=O)O)nc2n1 [Compound 3, (6R,7R)-7-[2-(2-amino-4-thiazolyl)-2-[Z-[(3-carboxy-4,5-dihydroxyphenyl)methyl]oxyimino]acetamido]-3-[(2-carboxy-5-methyl-s-triazolo[1,5-a]pyrimidin-7-yl)thiomethyl]-8-oxo-5-thia-1-azabicyclo[4.2.0]oct-2-ene-2-carboxylic acid]
LD50 (LD50, Probit method): > 4000 mg/kg
MIC [1]: 6.25 µg/mL (≈ 8.25 µM)
MIC [3]: 0.78 µg/mL (≈ 1.03 µM)
MIC [4, 10]: 0.78 µg/mL (≈ 1.03 µM)
MIC [5, 11]: 0.1 µg/mL (≈ 0.132 µM)
ED50 [8, 16]: 46.8 mg/kg
ED50 (Serratia marcescens 274; [13]): 0.72 mg/kg
ED50 (Staphylococcus aureus 4): 2.08 mg/kg
